The assay concerns SARS-CoV-2 (Omicron variant). The assay is described as follows: microbe, parasite or virus in culture. In kind it is cell-based.
Setting [1] is: Severe acute respiratory syndrome coronavirus 2, read-out: EC50 (μM) SARS-CoV-2/VeroE6-GFP.
Setting [2] is: Severe acute respiratory syndrome coronavirus 2, read-out: EC50 (μM) SARS-CoV-2 / VeroE6-GFP.
Setting [3] is: Severe acute respiratory syndrome coronavirus 2, Vero C1008, read-out: EC50 / activity in SARS-CoV-2 VeroE6 antiviral assay.

Read-outs that look alike come from different tables or passages of the source.

In the case of `COc1cccc(-c2ccc(C(=O)N[C@@H](CC(C)C)C(=O)N[C@H](C#N)C[C@@H]3CCNC3=O)cc2)c1` [6e], under setting [1], the EC50 amounted to 12.5 ± 0.5 µM. Take `COc1ccc(-c2ccc(C(=O)N[C@@H](CC(C)C)C(=O)N[C@H](C#N)C[C@@H]3CCNC3=O)cc2)cc1OC` [6f]: under setting [1], the EC50 came out at 11.9 ± 0.1 µM.

`CC(C)C[C@H](NC(=O)c1ccc(-c2cccc3nn(C)cc23)cc1)C(=O)N[C@H](C#N)C[C@@H]1CCNC1=O` [6j]: under setting [1], the EC50 was 12.1 ± 0.5 µM. For `CC(C)C[C@H](NC(=O)c1ccc(-c2ccc3c(cnn3C)c2)cc1)C(=O)N[C@H](C#N)C[C@@H]1CCNC1=O` [6l], under setting [1], the EC50 was 11.1 ± 0.3 µM. Turning to `CC(C)C[C@H](NC(=O)c1ccc(-c2cccc3nn(C)cc23)cc1F)C(=O)N[C@H](C#N)C[C@@H]1CCNC1=O` [18a], the EC50 under setting [2] amounted to 4.18 µM. In the case of `COc1ccc(-c2ccc(C(=O)N[C@@H](CC(C)C)C(=O)N[C@H](C#N)C[C@@H]3CCNC3=O)c(F)c2)cc1` [18b], the EC50 under setting [2] came to 5.67 µM. `CC(C)C[C@H](NC(=O)c1ccc(-c2ccc3c(cnn3C)c2)cc1F)C(=O)N[C@H](C#N)C[C@@H]1CCNC1=O` [18c]: the EC50 under setting [2] worked out at 6.34 µM. Take `COc1ccc(-c2ccc(C(=O)N[C@@H](CC(C)C)C(=O)N[C@H](C#N)C[C@@H]3CCNC3=O)c(C)c2)cc1` [18k]: the EC50 under setting [2] came to 5.16 µM.

For `COc1ccc(-c2ccc(C(=O)N[C@@H](CC(C)C)C(=O)N[C@H](C#N)C[C@@H]3CCNC3=O)c(C(F)(F)F)c2)cc1` [18m], the EC50 under setting [2] was 2.56 µM. In the case of `COc1cccc(-c2ccc(C(=O)N[C@@H](CC(C)C)C(=O)N[C@H](C#N)C[C@@H]3CCNC3=O)c(Cl)c2)c1` [18n], the EC50 by setting is: under setting [2], 2.18 µM; under setting [1], 2.18 ± 0.2 µM.

`CC(C)C[C@H](NC(=O)c1ccc(-c2ccc3c(cnn3C)c2)cc1Cl)C(=O)N[C@H](C#N)C[C@@H]1CCNC1=O` [18o]: the EC50 under setting [2] turned out to be 4.25 µM. As to `CC(C)C[C@H](NC(=O)c1ccc(-c2cccc3nn(C)cc23)cc1Cl)C(=O)N[C@H](C#N)C[C@@H]1CCNC1=O` [18p], the EC50 under setting [2] worked out at 11.8 µM.

Take `CC(C)C[C@H](NC(=O)c1ccc(-c2ccc3cnn(C)c3c2)cc1Cl)C(=O)N[C@H](C#N)C[C@@H]1CCNC1=O` [18q]: under setting [2], the EC50 is 3.02 µM. As for `COc1ccc(-c2ccc(C(=O)N[C@@H](CC(C)C)C(=O)N[C@H](C#N)C[C@@H]3CCNC3=O)c(Cl)c2)cc1` [18r], the EC50 under setting [2] came out at 1.57 µM. `COc1ccc(-c2ccc(C(=O)N3C[C@H]4[C@@H]([C@H]3C(=O)N[C@H](C#N)C[C@@H]3CCNC3=O)C4(C)C)c(Cl)c2)cc1` [22e]: the EC50 runs as follows: under setting [3], 0.2 to 0.3 µM; under setting [1], 0.289 ± 0.05 µM. In the case of `COc1cccc(-c2ccc(C(=O)N3C[C@H]4[C@@H]([C@H]3C(=O)N[C@H](C#N)C[C@@H]3CCNC3=O)C4(C)C)c(Cl)c2)c1` [22f], the EC50 runs as follows: under setting [3], 0.2 to 0.3 µM; under setting [1], 0.331 ± 0.05 µM. `COc1ccc(-c2ccc(C(=O)N[C@@H](CC3CCCCC3)C(=O)N[C@H](C#N)C[C@@H]3CCNC3=O)c(Cl)c2)cc1` [23c]: the EC50 under setting [1] was 2.49 ± 0.2 µM. Regarding `COc1cccc(-c2ccc(C(=O)N[C@@H](CC3CCCCC3)C(=O)N[C@H](C#N)C[C@@H]3CCNC3=O)c(Cl)c2)c1` [23d], the EC50 under setting [1] stood at 8.64 ± 0.3 µM. Take `CC(C)(C)[C@H](NC(=O)C(F)(F)F)C(=O)N1C[C@H]2[C@@H]([C@H]1C(=O)N[C@H](C#N)C[C@@H]1CCNC1=O)C2(C)C` [nirmatrelvir, reference compound]: the EC50 is 0.1 to 0.18 µM under setting [3] and 0.101 ± 0.2 µM under setting [1].

(Values after article PMC12516390 (ACS Medicinal Chemistry Letters, 2025).)
